Values after ≈ are worked out from the molar mass of the structure shown. Active and inactive are the calls of the source. The calls are words filed in the database; no cut-off is given here.
Experiments:
[1] = tested on: Rattus norvegicus; assay: Antiinflammatory activity against carrageenan-induced paw edema male Wistar albino rat at 10 mg/kg, ip administered 30 mins prior to carrageenan-challenge measured after 1 hr relative to control; type: functional; conditions: route intraperitoneal
[2] = tested on: Rattus norvegicus; assay: Antiinflammatory activity against carrageenan-induced paw edema male Wistar albino rat assessed as edema volume at 10 mg/kg, ip administered 30 mins prior to carrageenan-challenge measured after 3 hrs (reference value: 1.73 +/- 0.09 mL); type: functional; conditions: route intraperitoneal
[3] = tested on: Rattus norvegicus; assay: Antiinflammatory activity against carrageenan-induced paw edema male Wistar albino rat assessed as edema volume at 10 mg/kg, ip administered 30 mins prior to carrageenan-challenge measured after 2 hrs (reference value: 1.21 +/- 0.16 mL); type: functional; conditions: route intraperitoneal
[4] = tested on: Rattus norvegicus; assay: Antiinflammatory activity against carrageenan-induced paw edema male Wistar albino rat at 10 mg/kg, ip administered 30 mins prior to carrageenan-challenge measured after 2 hrs relative to control; type: functional; conditions: route intraperitoneal
[5] = tested on: Rattus norvegicus; assay: Antiinflammatory activity against carrageenan-induced paw edema male Wistar albino rat at 10 mg/kg, ip administered 30 mins prior to carrageenan-challenge measured after 3 hrs relative to control; type: functional; conditions: route intraperitoneal
[6] = tested on: Rattus norvegicus; assay: Antiinflammatory activity against carrageenan-induced paw edema male Wistar albino rat assessed as edema volume at 10 mg/kg, ip administered 30 mins prior to carrageenan-challenge measured after 4 hrs (reference value: 1.88 +/- 0.20 mL); type: functional; conditions: route intraperitoneal
[7] = tested on: Rattus norvegicus; assay: Antiinflammatory activity against carrageenan-induced paw edema male Wistar albino rat at 10 mg/kg, ip administered 30 mins prior to carrageenan-challenge measured after 4 hrs relative to control; type: functional; conditions: route intraperitoneal
[8] = tested on: Rattus norvegicus; assay: Antiinflammatory activity against carrageenan-induced paw edema male Wistar albino rat assessed as edema volume at 10 mg/kg, ip administered 30 mins prior to carrageenan-challenge measured after 1 hr (reference value: 1.11 +/- 0.12 mL); type: functional; conditions: route intraperitoneal
[9] = tested on: Saccharomyces cerevisiae; assay: Antimicrobial activity against Saccharomyces cerevisiae MTCC 170 assessed as growth inhibition at 4 mg/ml after 24 hrs by agar well diffusion method; type: functional
[10] = tested on: Staphylococcus aureus; assay: Antimicrobial activity against Staphylococcus aureus MTCC 96 assessed as growth inhibition after 24 hrs by agar well diffusion method; type: functional
[11] = tested on: Bacillus subtilis; assay: Antimicrobial activity against Bacillus subtilis MTCC 121 assessed as growth inhibition at 4 mg/ml after 24 hrs by agar well diffusion method; type: functional; conditions: for zone of inhibition at 4000 µg/mL: MTCC 121, 24 h, read-out: DIZ
[12] = tested on: Bacillus subtilis; assay: Antimicrobial activity against Bacillus subtilis MTCC 121 assessed as growth inhibition after 24 hrs by agar well diffusion method; type: functional
[13] = tested on: Escherichia coli; assay: Antimicrobial activity against Escherichia coli MTCC 1652 assessed as growth inhibition at 4 mg/ml after 24 hrs by agar well diffusion method; type: functional, organism-based
[14] = tested on: Saccharomyces cerevisiae; assay: Antimicrobial activity against Saccharomyces cerevisiae MTCC 170 assessed as growth inhibition after 24 hrs by agar well diffusion method; type: functional
[15] = tested on: Rattus norvegicus; assay: Antiinflammatory activity against carrageenan-induced paw edema male Wistar albino rat at 50 mg/kg, ip administered 30 mins prior to carrageenan-challenge measured after 2 hrs relative to control; type: functional; conditions: route intraperitoneal
[16] = tested on: Rattus norvegicus; assay: Antiinflammatory activity against carrageenan-induced paw edema male Wistar albino rat at 50 mg/kg, ip administered 30 mins prior to carrageenan-challenge measured after 4 hrs relative to control; type: functional; conditions: route intraperitoneal
[17] = tested on: Rattus norvegicus; assay: Antiinflammatory activity against carrageenan-induced paw edema male Wistar albino rat assessed as edema volume at 50 mg/kg, ip administered 30 mins prior to carrageenan-challenge measured after 4 hrs (reference value: 1.88 +/- 0.20 mL); type: functional; conditions: route intraperitoneal
[18] = tested on: Pseudomonas aeruginosa; conditions: MTCC 741, 4 mg/ml
Description: (§1) Antimicrobial activity against Pseudomonas aeruginosa MTCC 741 assessed as growth inhibition at 4 mg/ml after 24 hrs by agar well diffusion method

[19] = tested on: Rattus norvegicus; assay: Antiinflammatory activity against carrageenan-induced paw edema male Wistar albino rat assessed as edema volume at 50 mg/kg, ip administered 30 mins prior to carrageenan-challenge measured after 2 hrs (reference value: 1.21 +/- 0.16 mL); type: functional; conditions: route intraperitoneal
[20] = tested on: Rattus norvegicus; assay: Antiinflammatory activity against carrageenan-induced paw edema male Wistar albino rat at 50 mg/kg, ip administered 30 mins prior to carrageenan-challenge measured after 1 hr relative to control; type: functional; conditions: route intraperitoneal
[21] = tested on: Rattus norvegicus; assay: Antiinflammatory activity against carrageenan-induced paw edema male Wistar albino rat at 50 mg/kg, ip administered 30 mins prior to carrageenan-challenge measured after 3 hrs relative to control; type: functional; conditions: route intraperitoneal
[22] = tested on: Candida albicans; assay: Antimicrobial activity against Candida albicans MTCC 3017 assessed as growth inhibition at 4 mg/ml after 24 hrs by agar well diffusion method; type: functional; conditions: MTCC 3017, 24 h, read-out: DIZ
[23] = tested on: Staphylococcus aureus; assay: Antimicrobial activity against Staphylococcus aureus MTCC 96 assessed as growth inhibition at 4 mg/ml after 24 hrs by agar well diffusion method; type: functional
[24] = tested on: Rattus norvegicus; assay: Antiinflammatory activity against carrageenan-induced paw edema male Wistar albino rat assessed as edema volume at 50 mg/kg, ip administered 30 mins prior to carrageenan-challenge measured after 3 hrs (reference value: 1.73 +/- 0.09 mL); type: functional; conditions: route intraperitoneal
[25] = tested on: Candida albicans; assay: Antimicrobial activity against Candida albicans MTCC 3017 assessed as growth inhibition after 24 hrs by agar well diffusion method; type: functional; conditions: MTCC 3017, 24 h
[26] = tested on: Rattus norvegicus; assay: Antiinflammatory activity against carrageenan-induced paw edema male Wistar albino rat assessed as edema volume at 50 mg/kg, po administered 30 mins prior to carrageenan-challenge measured after 1 hr (reference value: 1.11 +/- 0.12 mL); type: functional
[27] = tested on: Pseudomonas aeruginosa; assay: microbe, parasite or virus in culture; conditions: MTCC 741, 24 h, read-out: DIZ
Description: as §1

| Compound | diameter of the inhibition zone (DIZ) [9] | MIC [10] | zone of inhibition at 4000 µg/mL [11] [mm] | MIC ([12]; MTCC 121, 24 h) [µg/mL] | diameter of the inhibition zone (DIZ) [13] | MIC [14] | Activity [15] [%] | Activity [16] [%] | Activity [17] [mL] | DIZ [18] | Activity [19] [mL] | Activity [20] [%] | Activity [21] [%] | zone of inhibition at 4000 µg/mL [22] [mm] | diameter of the inhibition zone (DIZ) [23] | Activity [24] [mL] | MIC [25] [µg/mL] | Activity [26] [mL] | also measured |
| --- | --- | --- | --- | --- | --- | --- | --- | --- | --- | --- | --- | --- | --- | --- | --- | --- | --- | --- | --- |
| COc1ccc2c(c1)c(CC(=O)O)c(C)n2C(=O)c1ccc(Cl)cc1 [INDOMETHACIN] |  |  |  |  |  |  |  |  |  |  |  |  |  |  |  |  |  |  | Activity [1]: 93.69%; Activity [2]: 0.15 mL; Activity [3]: 0.14 mL; Activity [4]: 88.42%; Activity [5]: 91.32%; Activity [6]: 0.16 mL; Activity [7]: 91.48%; Activity [8]: 0.07 mL |
| CCOC(=O)c1sc(-c2cn(-c3ccccc3)nc2-c2ccc(OC)cc2)nc1-c1ccc(Cl)cc1 | inactive | inactive | 14.3 | 50 (≈ 96.9 µM) | inactive | inactive | 68.59 | 71.8 | 0.53 | inactive | 0.38 | 86.48 | 78.03 | 14.3 | inactive | 0.38 | 50 (≈ 96.9 µM) | 0.15 |  |
| O=C(O)c1cn(C2CC2)c2cc(N3CCNCC3)c(F)cc2c1=O [CIPROFLOXACIN] |  |  | 24 | 6.25 (≈ 18.9 µM) |  |  |  |  |  |  |  |  |  |  |  |  |  |  | zone of inhibition at 4000 µg/mL ([23]; MTCC 96, 24 h, read-out: DIZ): 24 mm; zone of inhibition at 4000 µg/mL [27]: 22 mm |
| CCOC(=O)c1sc(-c2cn(-c3ccccc3)nc2-c2ccc(F)cc2)nc1-c1ccccc1 | inactive | inactive |  |  | inactive | inactive | 73.55 | 76.06 | 0.45 | inactive | 0.32 | 76.57 | 80.92 | 16.6 | inactive | 0.33 | 50 (≈ 106 µM) | 0.26 | diameter of the inhibition zone (DIZ) [11]: inactive; MIC [12]: inactive |
| CCOC(=O)c1sc(-c2cn(-c3ccccc3)nc2-c2ccc(OC)cc2)nc1-c1ccccc1 | inactive | inactive | 15 | 50 (≈ 104 µM) | inactive | inactive | 83.47 | 90.95 | 0.24 | inactive | 0.2 | 90.19 | 80.92 | 18.3 | inactive | 0.33 | 25 (≈ 51.9 µM) | 0.11 |  |

— ChEMBL document CHEMBL3396992, “Synthesis and biological evaluation of pyrazolylthiazole carboxylic acids as potent anti-inflammatory-antimicrobial agents” (2015)
